The target in one assay is T1, IRAK4 (Homo sapiens, UniProt Q9NWZ3).
T1 construct: 293Tcells expressing HiBiT-tagged IRAK4 were then added into 384-well plates
T1 sequence (Q9NWZ3 1-460): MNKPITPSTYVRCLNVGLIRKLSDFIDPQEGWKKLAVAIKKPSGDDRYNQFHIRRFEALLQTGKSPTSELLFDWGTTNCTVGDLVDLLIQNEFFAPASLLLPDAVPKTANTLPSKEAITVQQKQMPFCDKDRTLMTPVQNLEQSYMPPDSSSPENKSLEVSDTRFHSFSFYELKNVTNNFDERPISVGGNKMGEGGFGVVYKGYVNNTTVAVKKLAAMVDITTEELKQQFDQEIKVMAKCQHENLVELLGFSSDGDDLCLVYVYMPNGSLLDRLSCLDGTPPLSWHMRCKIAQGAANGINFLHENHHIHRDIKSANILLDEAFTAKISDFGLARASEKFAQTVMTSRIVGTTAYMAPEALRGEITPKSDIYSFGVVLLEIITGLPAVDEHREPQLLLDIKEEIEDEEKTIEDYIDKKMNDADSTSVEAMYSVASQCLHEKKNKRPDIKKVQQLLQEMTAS
Kind of assay: IRAK4 Degradation Assay, HiBiT Method. In kind it is cell-based. The conditions noted are these: 293T cells expressing HiBiT-tagged IRAK4, 6 hours. A digest of the protocol:
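293T cells with HiBiT knocked in at the C-terminus of endogenous IRAK4, 10,000 per well, treated 6 h at 37 °C with an 11-point half-log series ([…]), in duplicate. Remaining IRAK4 read by Nano-Glo HiBiT lytic luminescence against DMSO-only and media-only controls.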
(The HiBiT peptide binds its large partner to form an active luciferase.)

Another assay concerns the target T2, IKZF1 (Homo sapiens, UniProt Q13422).
T2 construct: endogenously expressing IKZF1 with HiBiT fusion tag via CRISPR
Kind of assay: IKZF1 Degradation Assay, HiBiT Method. In kind it is cell-based. The conditions noted are these: NCIH929 cells expressing HiBiT-tagged IKZF1, 6 hours, top concentration 10 μM. The procedure: Assay 2. IKZF1 Degradation Assay, HiBiT Method
Selected compounds of this disclosure were tested in an IKZF1 degradation assay using the HiBiT Method.
RPMI no-phenol red medium and fetal bovine serum (FBS) were purchased from Gibco (Grand Island, NY, USA). Nano-Glo® HiBiT Lytic Assay System was purchased from Promega (Madison, WI, USA). […] Cell culture flasks and 384-well microplates were acquired from VWR (Radnor, PA, USA).
IKZF1 degradation was determined based on quantification of luminescent signal using Nano-Glo® HiBiT Lytic Assay kit. […] NCIH929 cells expressing HiBiT-tagged IKZF1 were added into 384-well plates in RPMI medium containing 10% FBS and 0.05 mM 2-mercaptoethanol at a cell density of 15000 cells per well. The plates were kept at 37° C. with 5% CO2 for 6 hours. Cells treated in the absence of the test compound were the negative control and wells containing media only were the positive control. After 6-hour incubation, Nano-Glo® HiBiT Lytic Assay reagents were added to the designated wells. Luminescence was acquired on EnVision® Multilabel Reader (PerkinElmer, Santa Clara, CA, USA).

T2 sequence (Q96SW2 whole entry partner, the tested form may be a part): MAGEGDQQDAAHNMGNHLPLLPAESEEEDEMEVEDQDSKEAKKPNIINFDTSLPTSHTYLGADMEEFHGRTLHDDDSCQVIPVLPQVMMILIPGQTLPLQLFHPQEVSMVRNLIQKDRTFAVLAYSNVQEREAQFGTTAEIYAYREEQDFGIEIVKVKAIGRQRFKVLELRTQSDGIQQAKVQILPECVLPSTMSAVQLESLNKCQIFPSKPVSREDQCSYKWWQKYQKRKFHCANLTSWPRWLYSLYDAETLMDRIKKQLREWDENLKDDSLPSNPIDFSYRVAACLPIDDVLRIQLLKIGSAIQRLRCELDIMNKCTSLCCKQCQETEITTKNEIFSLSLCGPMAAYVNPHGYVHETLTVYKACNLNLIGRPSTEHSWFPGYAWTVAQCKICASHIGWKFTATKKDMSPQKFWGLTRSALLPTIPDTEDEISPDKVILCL
T2 sequence (Q16531 whole entry partner, the tested form may be a part): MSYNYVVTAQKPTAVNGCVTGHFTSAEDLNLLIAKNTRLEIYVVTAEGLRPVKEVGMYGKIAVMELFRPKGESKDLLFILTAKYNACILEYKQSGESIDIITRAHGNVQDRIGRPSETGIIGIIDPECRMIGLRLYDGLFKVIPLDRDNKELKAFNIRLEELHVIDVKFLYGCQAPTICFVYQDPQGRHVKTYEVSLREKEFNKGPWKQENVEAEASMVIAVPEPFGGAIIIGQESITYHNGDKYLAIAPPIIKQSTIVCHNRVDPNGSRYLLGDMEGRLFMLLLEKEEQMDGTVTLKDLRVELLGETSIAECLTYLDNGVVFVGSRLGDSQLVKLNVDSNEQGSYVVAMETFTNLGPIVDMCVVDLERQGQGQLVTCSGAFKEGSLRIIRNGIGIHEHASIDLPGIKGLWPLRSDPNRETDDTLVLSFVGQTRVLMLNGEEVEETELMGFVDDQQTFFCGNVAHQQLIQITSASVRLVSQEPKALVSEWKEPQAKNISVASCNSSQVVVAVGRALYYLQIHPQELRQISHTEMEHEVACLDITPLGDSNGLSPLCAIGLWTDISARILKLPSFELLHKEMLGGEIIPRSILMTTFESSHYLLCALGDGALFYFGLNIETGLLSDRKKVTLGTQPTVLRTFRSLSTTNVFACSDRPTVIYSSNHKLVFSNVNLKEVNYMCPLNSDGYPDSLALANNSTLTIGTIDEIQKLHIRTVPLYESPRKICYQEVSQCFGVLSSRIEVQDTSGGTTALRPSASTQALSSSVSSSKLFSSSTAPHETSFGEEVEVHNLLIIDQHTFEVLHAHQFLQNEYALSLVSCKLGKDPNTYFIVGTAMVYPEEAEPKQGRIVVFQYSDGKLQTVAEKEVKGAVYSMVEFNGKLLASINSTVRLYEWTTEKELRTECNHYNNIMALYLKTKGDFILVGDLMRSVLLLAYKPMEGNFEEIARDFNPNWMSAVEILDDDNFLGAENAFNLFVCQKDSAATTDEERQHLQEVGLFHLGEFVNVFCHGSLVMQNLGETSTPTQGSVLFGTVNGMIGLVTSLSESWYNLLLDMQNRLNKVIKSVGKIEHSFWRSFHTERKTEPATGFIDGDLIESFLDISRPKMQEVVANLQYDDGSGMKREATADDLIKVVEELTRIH
T2 sequence (Q13422 whole entry, the tested form may be a part): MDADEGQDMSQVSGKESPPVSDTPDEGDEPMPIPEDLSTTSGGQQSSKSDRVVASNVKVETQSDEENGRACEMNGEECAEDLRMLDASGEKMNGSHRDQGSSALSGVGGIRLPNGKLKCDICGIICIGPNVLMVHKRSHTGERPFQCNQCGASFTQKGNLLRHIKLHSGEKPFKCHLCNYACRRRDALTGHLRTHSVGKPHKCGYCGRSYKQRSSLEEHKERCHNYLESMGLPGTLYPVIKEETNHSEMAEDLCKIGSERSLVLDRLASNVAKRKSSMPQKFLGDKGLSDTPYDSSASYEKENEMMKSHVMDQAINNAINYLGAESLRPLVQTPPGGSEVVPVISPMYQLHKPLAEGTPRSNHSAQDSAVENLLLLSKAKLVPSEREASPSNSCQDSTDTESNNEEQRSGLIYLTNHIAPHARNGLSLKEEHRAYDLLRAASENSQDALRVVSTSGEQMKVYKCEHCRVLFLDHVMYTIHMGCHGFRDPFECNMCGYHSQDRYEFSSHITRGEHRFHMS

As for `CC(C)Oc1cc2nc([C@H]3CC[C@H](CN4CCN(c5ccc6c(N7CCC(=O)NC7=O)nn(C)c6c5)CC4)CC3)cn2cc1C(=O)Nc1cccc(C(F)F)n1` [Example 41, N-[6-(difluoromethyl)-2-pyridyl]-2-[4-[[4-[3-(2,4-dioxohexahydropyrimidin-1-yl)-1-methyl-indazol-6-yl]piperazin-1-yl]methyl]cyclohexyl]-7-isopropoxy-imidazo[1,2-a]pyridine-6-carboxamide], the DC50 (commonly the midpoint of the concentration-degradation curve) is 0.01 to 0.1 µM at IRAK4 and more than 10 µM at IKZF1.
Consider `CC(C)Oc1cc2nc(C3CCN(C(=O)CC4(O)CCN(c5ccc(NC6CCC(=O)NC6=O)cc5Cl)CC4)CC3)cn2cc1C(=O)Nc1cccc(C(F)F)n1` (stereo not shown) [Example 73, 2-[1-[2-[1-[2-chloro-4-[(2,6-dioxo-3-piperidyl)amino]phenyl]-4-hydroxy-4-piperidyl]acetyl]-4-piperidyl]-N-[6-(difluoromethyl)-2-pyridyl]-7-isopropoxy-imidazo[1,2-a]pyridine-6-carboxamide], for which the DC50 on IRAK4 was less than 0.01 µM; at IKZF1, more than 10 µM.
On to `CC(C)Oc1cc2nc([C@H]3CC[C@H](CN4CCC(c5ccc(OC6CCC(=O)NC6=O)cc5)CC4)CC3)cn2cc1C(=O)Nc1cnn2cccnc12` (stereo partly shown) [Example 50, 2-[4-[[4-[4-[(2,6-dioxo-3-piperidyl)oxy]phenyl]-1-piperidyl]methyl]cyclohexyl]-7-isopropoxy-N-pyrazolo[1,5-a]pyrimidin-3-yl-imidazo[1,2-a]pyridine-6-carboxamide], for which the DC50 is less than 0.01 µM at IRAK4 and more than 10 µM on IKZF1.
For the molecule `CC(C)Oc1cc2nc(C3CCN(C(=O)CC4CCN(c5ccc(C6CCC(=O)NC6=O)cn5)CC4)CC3)cn2cc1C(=O)Nc1cnn2cccnc12` (stereo not shown) [Example 159, 2-(1-(2-(1-(5-(2,6-dioxopiperidin-3-yl)pyridin-2-yl)piperidin-4-yl)acetyl)piperidin-4-yl)-7-isopropoxy-N-(pyrazolo[1,5-a]pyrimidin-3-yl)imidazo[1,2-a]pyridine-6-carboxamide], the DC50 at IRAK4 is less than 0.01 µM; at IKZF1, more than 10 µM.
Regarding `CC(C)Oc1cc2nc(C3CCN(CC(=O)N4CCC(c5ccc(C6(F)CCC(=O)NC6=O)cc5)CC4)CC3)cn2cc1C(=O)Nc1cnn2cccnc12` (stereo not shown) [Example 98, 2-[1-[2-[4-[4-(3-fluoro-2,6-dioxo-3-piperidyl)phenyl]-1-piperidyl]-2-oxo-ethyl]-4-piperidyl]-7-isopropoxy-N-pyrazolo[1,5-a]pyrimidin-3-yl-imidazo[1,2-a]pyridine-6-carboxamide], the results for the DC50 on IRAK4 and at IKZF1 were 0.01 to 0.1 µM and more than 10 µM, respectively.
The corresponding values for `CC(C)Oc1cc2nn(C3CCN(C(=O)CN4CCC(c5ccc(NC6CCC(=O)NC6=O)cc5)CC4)CC3)cc2cc1C(=O)Nc1cnn2cccnc12` (stereo not shown) [Example 55, 2-(1-(2-(4-(4-((2,6-dioxopiperidin-3-yl)amino)phenyl)piperidin-1-yl)acetyl)piperidin-4-yl)-6-isopropoxy-N-(pyrazolo[1,5-a]pyrimidin-3-yl)-2H-indazole-5-carboxamide] are less than 0.01 µM and more than 10 µM.
On to `CC(C)Oc1cc2nc(C3CCN(C(=O)CC4(O)CCN(c5ccc(NC6CCC(=O)NC6=O)cc5F)CC4)CC3)cn2cc1C(=O)Nc1cccc(C(F)F)n1` (stereo not shown) [Example 69, N-[6-(difluoromethyl)-2-pyridyl]-2-[1-[2-[1-[4-[(2,6-dioxo-3-piperidyl)amino]-2-fluoro-phenyl]-4-hydroxy-4-piperidyl]acetyl]-4-piperidyl]-7-isopropoxy-imidazo[1,2-a]pyridine-6-carboxamide], for which the DC50 on IRAK4 is less than 0.01 µM; on IKZF1 it was more than 10 µM.
`CC(C)Oc1cc2nc(C3CCN(C(=O)CN4CCC(c5ccc(C6CCC(=O)NC6=O)cc5)CC4)CC3)cn2cc1C(=O)Nc1cnn2cccnc12` (stereo not shown) [Example 87, 2-[1-[2-[4-[4-(2,6-dioxo-3-piperidyl)phenyl]-1-piperidyl]acetyl]-4-piperidyl]-7-isopropoxy-N-pyrazolo[1,5-a]pyrimidin-3-yl-imidazo[1,2-a]pyridine-6-carboxamide]: the DC50 at IRAK4 is less than 0.01 µM; on IKZF1, more than 10 µM.

The values above are taken from patent publication US20240343733A1, “COMPOUNDS FOR TARGETING DEGRADATION OF IRAK4 PROTEINS” (BIOGEN MA INC., priority 2021, published 2024).
